Assay [1] concerns the target T1, TMPRSS4 serine protease (Homo sapiens, UniProt Q9NRS4).
T1 construct: TMPRSS4 serine protease domain (205th Val˜437th Leu) was cloned in pET21b/NdeI-XhoI; inferred from pET21b XhoI cloning and Ni-NTA purification) (C); made in house; host or cells: E. coli BL21 (DE3)
Description: Inhibitory effect on TMPRSS4 serine protease activity using peptide substrate. The class given is biochemical. The note with it: kallikrein peptide substrate 100 μM, DMSO negative control; for Intracellular protease activity Inhibition % 10 uM / inhibition at 10 µM: 10 uM compound; for inhibition at 10 µM: read-out: Intracellular protease activity Inhibition % 10 uM; for inhibition at 30 µM / Intracellular protease activity Inhibition % 30 uM: 30 uM compound; for inhibition at 30 µM: read-out: Intracellular protease activity Inhibition % 30 uM; for inhibition at 100 µM: 100 uM compound, read-out: Intracellular protease activity Inhibition % 100 uM. On the procedure:
TMPRSS4 serine protease domain (205th Val˜437th Leu) was cloned in pET21b/NdeI-XhoI, which was introduced in E. coli BL21 (DE3). At this time, FlagX2-enterokinase cleavage site ([…]; total 15 amino acids) was inserted in N-terminal of TMPRSS4 serine protease domain as shown in FIG. 1. The forward and reverse primers for PCR used for the cloning were presented by SEQ. ID. NO: 1 and NO: 2.
The cells were cultured in 10 ml of LB containing ampicillin at 37° C. overnight. IL of LB+ampicillin was added thereto, followed by further culture until OD reached 0.6˜0.8. 0.1 mM IPTG was added thereto, followed by further culture for 16 hours. Cell pellet was obtained, purified by Ni-NTA (Qiagen), and dialyzed. TMPRSS4 serine protease (pro-form) labeled with 2 mg of 2Xflag-enterokinase cleavage site was conjugated to Ni-NTA resin (4°, overnight). Enterokinase (NEB) was treated thereto at the concentration of 0.0002%/w/w at room temperature for 5 hours. The sample was washed, eluted with 50 mM imidazole in 20 mM of sodium phosphate buffer, and then dialyzed.
The protein activity was evaluated by measuring fluorescence shown during hydrolysis of the peptide. […] Reaction was induced after adding 100 μM of the peptide substrate into reaction buffer (50 mM Tris-HCl (pH 8.0), 10 mM CaCl2, 1 μM ZnCl2). Then, fluorescence was measured at 5 minutes interval (excitation 385 nm, emission 455 nm).
Then, fluorescence (excitation 385 nm/emission 455 nm) was measured at 5 minutes interval for 150 minutes. […] Dimethylsulfoxide (DMSO) was used as the negative control.

Assay [2] relates to TMPRSS4 over-expressing colorectal cancer cell line SW480. Description: Inhibitory effect on infiltration of cancer cells over-expressing TMPRSS4 (matrigel trans-well). The note with it: Homo sapiens, read-out: Inhibition rate of target-expressing colorectal cancer cell activity (%, 0.1~2 uM). The class given is cell-based. How it is done:
The cells were distributed in a 6-well plate at the density of 3×10^5 cells/well, followed by transfection. 48 hours later, the medium was replaced with a selection medium (800 μg/ml G418 medium). G418-resistant clone was separated, followed by culture for 2 weeks, during which selection was performed.
The cancer cell line constructed in step 1 was distributed in a 24-well trans-well plate (8 μm pore size; Costar, USA) whose porous membrane was coated with 100 μl of matrigel (BD Biosciences, USA) diluted with serum-free medium at the concentration of 250 μg/ml, which stood at room temperature for 1 hour for solidification. Lower chamber of the trans-well plate was coated with 100 μl of collagen type I (Sigma) at the concentration of 20 μg/ml. […] While culturing the cells in a 37, 5% CO2 incubator for 48 hours, cell migration from the upper chamber to lower chamber was allowed. […] The excessive crystal violet solution was washed away with distilled water. The migrated cell number was counted from 5 randomly selected areas (×200). The experiment was repeated at least twice under the same condition, and the representative result was presented.
The inhibitory effect of each compound on the infiltration of TMPRSS4 over-expressing colorectal cancer cell line SW480 was calculated by Mathematical Formula 1, which presents the number of infiltrated cells with % by the number of infiltrated cells in the negative control treated with DMSO. Infiltration Inhibition Rate (%)=100−Infiltrated cell number with the treatment of each compound/Infiltrated cell number with the treatment of DMSO×100 [Mathematical Formula 1]

[3] abbreviates: 0.8 uM, SW480 over-expressing TMPRSS4, 48 hours.
Setting [4] is: SW480 over-expressing TMPRSS4, 48 hours.
Where [5] appears, read: 2 uM, SW480 over-expressing TMPRSS4, 48 hours.

Where two headings read alike, the source gives them in different places.

T1 sequence (Q9NRS4 205-437): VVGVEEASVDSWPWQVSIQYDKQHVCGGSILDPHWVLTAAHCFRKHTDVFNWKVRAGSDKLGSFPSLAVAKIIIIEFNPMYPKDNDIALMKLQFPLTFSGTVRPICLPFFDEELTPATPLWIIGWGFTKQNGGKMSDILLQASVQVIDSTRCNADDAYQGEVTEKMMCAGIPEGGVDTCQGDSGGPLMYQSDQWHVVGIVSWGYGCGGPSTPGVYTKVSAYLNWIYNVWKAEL

In general, inhibition refers to the drop in the measured response relative to a control, in per cent. On to `O=C(Nc1cc(C(F)(F)F)cc(C(F)(F)F)c1)c1cc(Cl)ccc1O` [Example 1, N-(3,5-bis(trifluoromethyl)phenyl)-5-chloro-2-hydroxybenzamide], for which, in assay [1], the “Intracellular protease activity Inhibition % 10 uM” value was 64%, the inhibition at 10 µM lay within 51 to 100%, the inhibition at 30 µM came out at 96% and the inhibition at 100 µM was determined as 100%. Further, the inhibition at 0.8 µM in assay [2] (SW480, 48 h) came to 76%.

Turning to `COc1cc(NC(=O)c2cc(Cl)ccc2O)cc(C(F)(F)F)c1` [Example 6, 5-chloro-2-hydroxy-N-(3-methoxy-5-(trifluoromethyl)phenyl)benzamide], in assay [1], the “Intracellular protease activity Inhibition % 10 uM” value amounted to 67%, the inhibition at 10 µM was in the range of 51 to 100%, the inhibition at 30 µM came to 88% and the inhibition at 100 µM stood at 99%. The inhibition at 0.8 µM in assay [2] (setting [3]) amounted to 49%.

Turning to `O=C(Nc1cc(C(F)(F)F)cc(C(F)(F)F)c1)c1cc2ccccc2cc1O` [Example 8, N-(3,5-bis(trifluoromethyl)phenyl)-2-hydroxy-3-naphthaamide], in assay [1], the “Intracellular protease activity Inhibition % 10 uM” value is recorded as 58%, the inhibition at 10 µM is 51 to 100% and the inhibition at 30 µM was found to be 96%. In addition, in assay [2] (setting [3]), the inhibition at 0.8 µM came out at 72%.

For the compound `N#Cc1ccc(NC(=O)c2cc(Cl)ccc2O)cc1C(F)(F)F` [Example 19, 5-chloro-N-(4-cyano-3-(trifluoromethyl)phenyl)-2-hydroxybenzamide], in assay [1], the inhibition at 30 µM was found to be 88% and the inhibition at 100 µM was 100%. In addition, the inhibition at 2 µM in assay [2] (SW480, 48 h) is 81%.

Take `O=C(Nc1cc(Br)cc(C(F)(F)F)c1)c1cc(Cl)ccc1O` [Example 22, N-(3-bromo-5-(trifluoromethyl)phenyl)-5-chloro-2-hydroxybenzamide]: in assay [1], the “Intracellular protease activity Inhibition % 10 uM” value amounted to 64%, the inhibition at 10 µM lay in the range of 51 to 100%, the inhibition at 30 µM worked out at 100% and the inhibition at 100 µM is 100%. Further, the inhibition at 0.1 µM in assay [2] (setting [4]) turned out to be 43%.

Take `O=C(Nc1cnc2ccccc2c1)c1cc(Cl)ccc1O` [Example 25, 5-chloro-2-hydroxy-N-quinoline-3-yl-benzamide]: in assay [1], the inhibition at 30 µM was 8% and the inhibition at 100 µM amounted to 75%. The inhibition at 25 µM in assay [2] (25 uM, SW480 over-expressing TMPRSS4, 48 hours) turned out to be 51%.

With `N#Cc1ccc(NC(=O)c2cc(Cl)ccc2O)c(Cl)c1` [Example 27, 5-chloro-N-(2-chloro-4-cyano-phenyl)-2-hydroxy-benzamide], in assay [1], the inhibition at 30 µM was 92% and the inhibition at 100 µM amounted to 100%. In addition, the inhibition at 2 µM in assay [2] (setting [5]) was 54%.

`O=C(Nc1nnc(C(F)(F)F)s1)c1cc(Cl)ccc1O` [Example 28, 5-chloro-2-hydroxy-N-(5-trifluoromethyl-[1,3,4]thiadiazole-2-yl)-benzamide]: in assay [1], the inhibition at 30 µM was determined as 75% and the inhibition at 100 µM amounted to 100%. In addition, the inhibition at 2 µM in assay [2] (setting [5]) is 52%.

Take `O=C(Nc1ccc(Cl)c(C(F)(F)F)c1)c1cc(Cl)ccc1O` [Example 32, 5-chloro-N-(4-chloro-3-(trifluoromethyl)phenyl)-2-hydroxybenzamide]: in assay [1], the “Intracellular protease activity Inhibition % 10 uM” value is 71%, the inhibition at 10 µM lay in the range of 51 to 100%, the inhibition at 30 µM was 95% and the inhibition at 100 µM was found to be 99%. For the same compound, the inhibition at 0.8 µM in assay [2] (setting [3]) was found to be 68%.

On to `Cc1c(C(F)(F)F)cc(NC(=O)c2cc(Cl)ccc2O)cc1C(F)(F)F` [Example 33, 5-chloro-2-hydroxy-N-(4-methyl-3,5-bis(trifluoromethyl)phenyl)benzamide], for which, in assay [1], the “Intracellular protease activity Inhibition % 10 uM” value was determined as 51%, the inhibition at 10 µM was 51 to 100% and the inhibition at 30 µM was 94%. Also, the inhibition at 0.1 µM in assay [2] (setting [4]) is 43%.

Regarding `O=C(Nc1ccc(C(F)(F)F)cc1[N+](=O)[O-])c1cc(Cl)ccc1O` [Example 36, 5-chloro-2-hydroxy-N-(2-nitro-4-trifluoromethyl-phenyl)-benzamide], in assay [1], the “Intracellular protease activity Inhibition % 10 uM” value was found to be 53% and the inhibition at 10 µM is 51 to 100%. The inhibition at 0.8 µM in assay [2] (setting [3]) is 76%.

In the case of `N#Cc1ccc(NC(=O)c2cc(Cl)ccc2O)nc1` [Example 37, 5-chloro-N-(5-cyano-pyridine-2-yl)-2-hydroxy-benzamide], in assay [1], the inhibition at 10 µM came to 26%, the “Intracellular protease activity Inhibition % 30 uM” value is given as 63% and the inhibition at 30 µM lay in the range of 47 to 100%. The inhibition at 5 µM in assay [2] (5 uM, SW480 over-expressing TMPRSS4, 48 hours) was 44%.

In the case of `O=C(Nc1nc(-c2ccccc2)cs1)c1cc(Cl)ccc1O` [Example 53, 5-chloro-2-hydroxy-N-(4-phenylthiazole-2-yl)benzamide], in assay [1], the inhibition at 30 µM turned out to be 91% and the inhibition at 100 µM worked out at 98%. Further, the inhibition at 0.1 µM in assay [2] (setting [4]) stood at 34%. Besides, the inhibition at 1 µM in assay [2] (1 uM, SW480 over-expressing TMPRSS4, 48 hours) turned out to be 56%.

For `O=C(Nc1cc(C(F)(F)F)cc(C(F)(F)F)c1)c1cc([N+](=O)[O-])ccc1O` [Example 55, N-(3,5-bis(trifluoromethyl)phenyl)-2-hydroxy-5-nitrobenzamide], in assay [1], the inhibition at 10 µM was 33% and the inhibition at 30 µM came to 78%. Besides, in assay [2] (setting [4]), the inhibition at 0.1 µM came out at 26%.

As for `O=C(Nc1cc(C(F)(F)F)c(Br)c(C(F)(F)F)c1)c1cc(Cl)ccc1O` [Example 65, N-(4-bromo-3,5-bis(trifluoromethyl)phenyl)-5-chloro-2-hydroxybenzamide], in assay [1], the “Intracellular protease activity Inhibition % 10 uM” value is recorded as 58%, the inhibition at 10 µM lay within 51 to 100% and the “Intracellular protease activity Inhibition % 30 uM” value was found to be 85%. In addition, the inhibition at 0.1 µM in assay [2] (setting [4]) is 53%.

Values taken from patent US9266872B2, “2-hydroxyarylamide derivative or pharmaceutically acceptable salt thereof, preparation method thereof, and pharmaceutical composition for preventing or treating cancer containing same as active ingredient” (KOREA RESEARCH INSTITUTE OF BIOSCIENCE AND BIOTECHNOLOGY, priority 2011, dated 2016).
